This is an account of results in PMC8509773, “3-Pyridinylidene Derivatives of Chemically Modified Lupane and Ursane Triterpenes as Promising Anticancer Agents by Targeting Apoptosis” (International Journal of Molecular Sciences, 2021).

The subject of data set [1] is NCI-60 cancer cell line panel. More on the design: method as in PMID 33970717. Conditions: earlier study; read-out: GI50 range against NCI-60; cited from earlier work.
For data set [2], the system named is chorioallantoic membrane. Put plainly: HET-CAM irritation assay. Particulars: in vivo. An excerpt: HET-CAM assay was used in order to assess the toxicity of compounds 6 and 7 (Figure 16); the procedure is a low-cost, unique model in biomedical research that allows the testing of the irritation potency of chemical compounds while simultaneously avoiding in vivo experiments. […] The Luepke scale was used to establish the irritation score: 0–0.9 indicates non-irritant, 1–4.9 indicates weakly irritant, 5–8.9 indicates moderately irritant, and 9–21 means strongly irritant.
Compounds 6 and 7 were also evaluated in terms of biocompatibility on mucosal tissues by using the in vivo Hen’s Egg Chorioallantoic Membrane Test (HET-CAM assay). The assay assesses a potential irritant effect on the vascular plexus of the chorioallantoic membrane. The HET-CAM method was carried out following ICCVAM recommendations published in November 2016 in Appendix G and adapted to our laboratory conditions. Thus, 300 µL of control or test solution, respectively, was applied on CAM and the alterations induced at the CAM level were monitored by means of stereomicroscopy (Discovery 8 Stereomicroscope, Zeiss), registering significant images (Axio CAM 105 color, Zeiss), before the application and after 5 min contact with the samples. All images were processed using Zeiss ZEN software, Gimp 2.8 and ImageJ software. Negative control was represented by distilled water and solvent control DMSO 0.5%, while the positive control by the sodium lauryl sulphate (SLS) 0.5% in distillate water. The test substances were tested in concentrations of 1 µM. The observation time of the produced reactions was 5 min (300 s) and the time, at which the occurrence of a particular reaction took place was recorded in seconds. Finally, the following reactions were monitored: hemorrhage—H (blood vessel bleeding), vascular lysis —L (disintegration of blood vessels), and coagulation —C (intra or extra- vascular protein denaturizing). A variety of analysis methods may be used to assess irritancy potential of test substances. One analysis method that has been used extensively used is an irritation score (IS) calculated according to the following formula: IS=5×301−SecH/300+[…]/300+9×301−SecC/300 where H = hemorrhage; L = vessel lysis; C = coagulation; Hemorrhage time (Sec H) = onset of hemorrhage reactions on CAM (in sec); Lysis time (Sec L) = onset of vessel lysis on CAM (in sec); Coagulation time (Sec C) = onset of coagulation formation on CAM (in sec). The formula comprises a factor indicating the impact of the observed effect on vascular damage, e.g., coagulation has the highest impact expressed by the multiplication factor 9. The IS values range on a scale between 0 and 21.

Details of data set [3]: method as in PMID 11527742, doi:10.1007/s00044-018-2189-6, PMID 32956968. Conditions: literature data; cited from earlier work.

By GI50 is commonly meant the concentration that inhibits growth by half. For “2,30-bis-(3-pyridinylidene)-platanic acid”, the GI50 in data set [1] is 1000 to 2000 nM.
For 3-pyridinylidene-messagenin, in data set [1], the 50% growth inhibitory concentration (GI50) is 1000 to 2000 nM.
On to `CCCCCCCCCCCCOS(=O)(=O)[O-].[Na+]` [SLS 0.5%, sodium laurylsulphate, reference compound], for which the “Type of Effect” value in data set [2] was “Strong irritant”.
`CC(=O)[C@@H]1CC[C@]2(C(=O)O)CC[C@]3(C)[C@H](CC[C@@H]4[C@@]5(C)CC[C@H](O)C(C)(C)[C@@H]5CC[C@]43C)[C@@H]12` [platanic acid]: the GI50 in data set [3] is greater than 50000 nM.
